Series [1] relates to murine model of BLM-induced pulmonary fibrosis. In words: BLM-induced pulmonary fibrosis model in mice. The format is in vivo. As for the experimental part:
Bleomycin chloride (BLM) was dissolved in a physiological saline solution (saline). BLM was intravenously administered to 10-week-old ICR-strain male mice once in a dose of […] to induce disease. To a non-BLM administration group, saline was administered, instead. KP-496 was administered by inhalation twice a day from the initiation date of BLM administration to the day before autopsy. To describe in brief, a mouse housed in a polyethylene container under unrestrained conditions was allowed to spontaneously inhale a mist state of KP-496 solution (0.5 w/v %) nebulized by a nebulizer for 30 minutes. Furthermore, the vehicle (saline) for KP-496 was administered by inhalation to a control group, in the same manner. A group consisted of 8 animals.
On the 7th day or 21st day after administration of BLM, the mouse was killed by exsanguinations under anaesthesia with pentobarbital. Immediately after that, BAL of the right lung alone was done. BAL fluid (BALF) was centrifuged and the supernatant was removed, and thereafter, precipitated cells were resuspended in saline. The total number of cells was determined by use of a particle counter analyzer. Furthermore, using the remaining cell suspension solution, a smear sample of cells was prepared and stained with Giemsa. The cells were classified according to the cell type. Based on the percentages of cell types, the numbers of classified cells were calculated.
After BAL, the right lung was lyophilized. The content of hydroxyproline in the lung tissue was measured in accordance with the KISO method using chloramine T (Inayama et al., Keio J. Med., 27: 43 (1978)).
After BAL, the left lung was fixed in 10 vol % neutral-buffered formalin solution. Thereafter, a paraffin section was prepared in a general way, stained with H. E. and azan and subjected to histopathologic examination of the lung. When an abnormality was observed, the degree of the abnormality was arbitrarily evaluated under blind conditions and scored based on the following 4 stages:
0: No abnormality is observed
1: Pathologic lesion is locally observed in a limited area of a sample
2: Pathologic lesion is observed about a ⅓ region of a sample
3: Pathologic lesion is observed about a ½ region of a sample
4: Pathologic lesion is observed in substantially the entire region of a sample.
The average value and standard deviation of each group were obtained. Comparison between two groups, that is, between BLM administration/vehicle group and BLM administration/KP-496 group or a saline administration/vehicle group, was performed with the Student's t-test. Furthermore, histopathologic lesion scores were evaluated by the Mann-Whitney test. The significance level (P) was set at […].

The subject of series [2] is vanadium pentoxide-induced bronchitis model. The series is described as follows: Vanadium pentoxide-induced bronchitis model in mice. It counts as in vivo. The settings on record: 7 days after vanadium pentoxide; compared with control. As for the experimental part:
Seven-week old C57BL strain male mice were used. The mouse was anaesthetized with isoflurane. Vanadium pentoxide (20 μg) was administered once to the lung through a cannula inserted into the trachea through the pharyngolarynx to induce pathology. To a non-vanadium pentoxide administration group (normal group), saline was administered, instead. KP-496 was administered by inhalation twice a day in the period from the vanadium pentoxide administration date to the day before autopsy, in the same manner as in Example 2. Furthermore, the normal group and the control group were allowed to spontaneously inhale saline in the same manner. A medicament for use in comparison, prednisolone, was orally administered at a dose of 5 mg/kg twice a day in the period from the vanadium pentoxide administration date to the day before autopsy. Note that the normal group consisted of 6 animals and the other group consisted of 10 animals. Each of the mice was anaesthetized with pentobarbital 7 days after vanadium pentoxide administration and killed by bloodletting from the abdominal aorta. The lung was excised out and fixed in 10 vol % neutral buffered formalin solution. […] The obtained value was divided by the circumferential length of the bronchial lumen (obtained in mucosal basal membrane) and the quotient was expressed as a mucus producing region area per millimeter of the bronchus. […]

A short description of series [3]: KP-496 concentration in the mouse lung tissue after inhalation. The format is in vivo, mice. The following applies: after 30 min inhalation of nebulized KP-496 solution (0.5 w/v %). The method, then:
Seven-week old C57BL-strain male mice were was used. The mouse was allowed to inhale nebulized KP-496 for 30 min. through a nasal cavity to the lung tissue in the same manner as in Example 2. After completion of the inhalation, the mouse was killed by exsanguination under anaesthesia with pentobarbital. Immediately after that, the lung was excised out, weighed and freezed at −80° C. to store. A 4-fold volume of phosphate buffer was added to the lung homogenized and measured with LC-MS. The number of animals was five.

Setting [4] is: 7th day after BLM, inhalation twice a day.
The mark [5] stands for this setting: 21st day after BLM, inhalation twice a day.

Turning to `CC(C)c1csc(COc2cccc(CN(CCCCNS(=O)(=O)c3ccc(Cl)cc3)S(=O)(=O)c3ccccc3C(=O)O)c2)n1` [KP-496, 2-{N-[4-(4-chlorobenzenesulfonylamino)butyl]-N-{3-[(4-isopropyl-2-thiazolyl)methoxy]benzyl}}sulfamoylbenzoic acid], the “hydroxyproline content of the right lung lobe” value in series [1] (7th day after BLM) amounted to 129.9 ± 11.35 µg. Besides, the “total number of cells in BALF” value in series [1] (7th day after BLM, KP-496 0.5 w/v % inhalation twice a day) was 0.6±0.29 ×10^5 cells. Also, in series [1] (setting [4]), the “number of alveolar macrophages in BALF” value is reported as 0.6±0.27 ×10^5 cells, the “number of eosinophils in BALF” value is given as 0.3±0.68 ×10^3 cells, the “number of lymphocytes in BALF” value is 0.1±0.09 ×10^4 cells and the “number of neutrophils in BALF” value is reported as 0.2±0.11 ×10^4 cells. In addition, the “histopathologic score of acute inflammation, left lung” value in series [1] (7th day after BLM, score 0-4) is listed as 1.0±0.76. Moreover, in series [1] (21st day after BLM), the “hydroxyproline content of the right lung lobe” value is 138.0 ± 9.93 µg. Besides, in series [1] (setting [5]), the “number of alveolar macrophages in BALF” value was 0.7±0.23 ×10^5 cells, the “number of eosinophils in BALF” value is given as 0.1±0.21 ×10^3 cells, the “number of lymphocytes in BALF” value is on record as 0.3±0.10 ×10^4 cells and the “number of neutrophils in BALF” value is given as 0.02±0.02 ×10^4 cells. For the same compound, the “total number of cells in BALF” value in series [1] (setting [5]) was 0.8±0.24 ×10^5 cells. Further, in series [1] (21st day after BLM, score 0-4), the “histopathologic score of chronic inflammation, left lung” value was found to be 1.0±0.76 and the “histopathologic score of fibrogenesis, left lung” value amounted to 0.6±0.52. Further, the “increase of PAS positive area (mucus producing region of intrapulmonary bronchial epithelium)” value in series [2] is “significantly suppressed”. Also, the “content of KP-496 in murine lung” value in series [3] is 418 ± 114 ng.
